According to patent US20200261450A1, “6,7-DIHYDROPYRAZOLO[1,5-a]PYRAZIN-4(5H)-ONE COMPOUNDS AND THEIR USE AS NEGATIVE ALLOSTERIC MODULATORS OF MGLUR2 RECEPTORS” (Janssen Pharmaceutica NV, priority 2014, published 2020):
Where two headings read alike, the source gives them in different places.

Experiments:
rats = test: Reversal of the effect of the mGluR2 PAM JNJ-42153605-induced inhibition of scopolamine-induced hyperlocomotion; type: in vivo; conditions: Rattus norvegicus, criterion total distance >1500 cm, read-out: ED50 SCOP JNJ-42153605
Procedure: 2) Reversal of the Effect of the mGluR2 PAM JNJ-42153605-Induced Inhibition of Scopolamine-Induced Hyperlocomotion
Motor activity was measured in microprocessor-based motor activity arenas (closed gray PVC cylinders with a height of 39 cm and a diameter of 31 cm). Each arena was placed on an infrared LED (8×8 LEDs) lit box (white PVC squared box; 40×40 cm^2; height 12.5 cm. An infrared-sensitive tube camera and a white light source were mounted to the ceiling above the observation chamber to track the animal. The total distance traveled (cm) was recorded and analyzed using the Noldus Ethovision XT Video Tracking System (Version 7.0.418; Noldus, Wageningen, The Netherlands). The intensity of the light within the activity cages (measured in the centre at the level of the floor) ranged between 4 and 8 LUX.
The rats were pretreated with test compound or vehicle at 60 min before the start of the activity recordings and placed into individual cages. The rats were challenged with JNJ-42153605 (3-(cyclopropylmethyl)-7-(4-phenylpiperidin-1-yl)-8-(trifluoromethyl)[1,2,4]triazolo[4,3-a]pyridine; WO2010/130424; Cid et al. J. Med. Chem. 2012, 55, 8770-8789) (20 mg/kg, i.v.) 30 min before the start of the activity recording combined with scopolamine (0.16 mg/kg, i.v.) just before the start of the activity measurements. Immediately after the injection of scopolamine, the rats were placed into the activity monitors and total distance traveled over the first 30 min was measured.
Animals receiving the combination of JNJ-42153605 and scopolamine (n=433) almost always traveled a distance of less than 1500 cm (<1500 cm) (only 2.5% of the control rats traveled a distance of more than 1500 cm (>1500 cm)). On the other hand, animals challenged with scopolamine alone (n=215) always traveled a total distance of more than 1500 cm (>1500 cm) and almost always (in 95.8% of the rats) a distance of more than 4400 cm (>4400 cm). […] For reversal of the inhibitory effect of JNJ-42153605 on the scopolamine-induced hyperlocomotion, the following all-or-none criteria were adopted: (1) reversal: total distance >1500 cm.

human mGlu2 receptor = molecular target: T1, human mGlu2 receptor (Homo sapiens, UniProt Q14416); test: [35S]GTPγS binding assay, mGluR2 negative allosteric modulation; type: biochemical; conditions: for Emax: maximal % inhibition relative to the control glutamate response, read-out: GTPγS-hmGluR2 anGT Emax; for IC50: membranes from CHO cells transfected with human mGlu2 receptor, glutamate 60 μM (~EC80), read-out: GTPγS-hmGluR2 anGT pIC50 (converted)
T1 construct: expressed in transfected cells; host or cells: CHO cells (membrane preparation)
T1 sequence (Q14416 19-872): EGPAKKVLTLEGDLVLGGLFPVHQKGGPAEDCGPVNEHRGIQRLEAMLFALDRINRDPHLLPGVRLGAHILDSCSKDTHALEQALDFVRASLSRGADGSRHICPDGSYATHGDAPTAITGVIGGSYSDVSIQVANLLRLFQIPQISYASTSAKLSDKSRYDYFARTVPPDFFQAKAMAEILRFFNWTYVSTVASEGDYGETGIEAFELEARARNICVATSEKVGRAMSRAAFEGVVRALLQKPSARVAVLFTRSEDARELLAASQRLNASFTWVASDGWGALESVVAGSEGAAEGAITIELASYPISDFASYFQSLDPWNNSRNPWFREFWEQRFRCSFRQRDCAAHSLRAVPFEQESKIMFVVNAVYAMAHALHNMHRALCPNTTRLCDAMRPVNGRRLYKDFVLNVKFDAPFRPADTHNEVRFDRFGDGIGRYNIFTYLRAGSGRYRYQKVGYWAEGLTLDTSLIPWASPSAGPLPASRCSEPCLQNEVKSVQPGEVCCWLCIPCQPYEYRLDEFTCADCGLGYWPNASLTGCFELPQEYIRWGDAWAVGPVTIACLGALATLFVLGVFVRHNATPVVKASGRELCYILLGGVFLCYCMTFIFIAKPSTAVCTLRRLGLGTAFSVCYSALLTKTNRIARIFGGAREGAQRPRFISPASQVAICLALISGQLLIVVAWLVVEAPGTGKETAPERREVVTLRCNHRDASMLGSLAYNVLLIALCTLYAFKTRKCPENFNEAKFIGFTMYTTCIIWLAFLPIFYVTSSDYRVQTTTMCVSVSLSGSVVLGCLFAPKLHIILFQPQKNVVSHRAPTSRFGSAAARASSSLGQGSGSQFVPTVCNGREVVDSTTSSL
Text: Membrane-bound radioactivity was counted in a Topcount.

Wiga Wistar rats = test: Reversal of LY-404039-induced decrease of palpebral opening in apomorphine-challenged rats; type: in vivo; conditions: Rattus norvegicus, criterion cumulative palpebral opening score >26, read-out: ED50 APO LY-404039
Procedure: Male Wiga Wistar rats (Crl:WI; Charles River Germany; 220±40 g) were housed under standard laboratory conditions (21±2° C.; 50-65% relative humidity; light-dark cycle set at 12 h; lights on at 6.00 h) and fasted overnight prior to the start of the experiments (tap water remained available ad libitum). During the test period, they were housed in individual cages. Palpebral opening was scored every 5 min over the first hour after injection of apomorphine (1.0 mg/kg, i.v.) in animals either pretreated or not pretreated with LY-404039 (2.5 mg/kg, s.c.) at 1 h prior to the apomorphine injection. The animals were also pretreated with test compound or solvent at a predefined interval before apomorphine challenge. The score system was: (5) exophthalmos, (4) wide open, (3) open for three-quarters, (2) half open, (1) open for one-quarter, (0) closed. The scores for palpebral opening were cumulated over the 60-min observation period.
In animals receiving apomorphine alone the median palpebral opening is 43 whereas in animals receiving apomorphine and LY-404039, the median palpebral opening is 17.

Wiga rats = test: Induction of mydriasis; type: in vivo; conditions: Rattus norvegicus, route PO, pupil diameter >25 units 1 h post-administration
Procedure: The pupil diameter of Wiga rats was measured with a microscopic micrometer (1 unit= 1/24 mm). Criteria for drug-induced effects: pupil diameter >25 units for mydriasis (in controls: 1.9%) 1 h post-administration of the test compound.

Emax (human mGlu2 receptor) [%]	IC50 (human mGlu2 receptor) [nM]	melting point [°C]	Structure (SMILES)	ED50 (rats; route PO) [mg/kg]	ED50 (rats; route SC) [mg/kg]	ED50 (Wiga Wistar rats; route PO) [mg/kg]	ED50 (Wiga Wistar rats; route SC) [mg/kg]	ED50 (Wiga rats) [mg/kg]
109	7.08	150.37	Cc1cc(N2C[C@H](C)n3ncc(-c4cc(-c5cnccn5)no4)c3C2=O)ccc1C(F)(F)F [compound 21]	> 0.63	–	–	–	–
109	3.24	143.97	Cc1cc(N2C[C@H](C)n3ncc(-c4cc(-c5cccnc5)no4)c3C2=O)ccc1C(F)(F)F [compound 18]	> 0.63	–	–	–	–
109	2.14	172.39	Cc1ccncc1-c1cc(-c2cnn3c2C(=O)N(c2ccc(C(F)(F)F)c(C)c2)C[C@@H]3C)on1 [compound 20]	> 0.63	–	–	–	–
103	2.75	126.2	Cc1cc(-c2cnn3c2C(=O)N(c2ccc(C(F)(F)F)c(Cl)c2)C[C@@H]3C)on1 [compound 12]	1.99	–	–	–	–
107	10.2	171.97	Cc1cc(N2C[C@H](C)n3ncc(-c4cc(-c5ccccn5)no4)c3C2=O)ccc1C(F)(F)F [compound 17]	> 0.63	–	–	–	–
104	12.9	171.64	Cc1cc(N2C[C@H](C)n3ncc(-c4cc(-c5cncc(F)c5)no4)c3C2=O)ccc1C(F)(F)F [compound 19]	–	–	–	–	–
105	5.89	181.56	C[C@H]1CN(c2ccc(C(F)(F)F)c(Cl)c2)C(=O)c2c(-c3cc(-c4cncc(F)c4)no3)cnn21 [compound 14]	–	–	–	–	–
107	7.24	159.08	C[C@H]1CN(c2ccc(C(F)(F)F)c(Cl)c2)C(=O)c2c(-c3cc(-c4ccccn4)no3)cnn21 [compound 13]	> 0.63	–	–	–	–
105	3.8	168.47	C[C@H]1CN(c2ccc(C(F)(F)F)c(Cl)c2)C(=O)c2c(-c3cc(-c4cnccn4)no3)cnn21 [compound 16]	> 0.63	–	–	–	–
105	20	202.51	C[C@H]1CN(c2ccc(C(F)(F)F)cc2)C(=O)c2c(-c3cc(-c4cnccn4)no3)cnn21 [compound 11]	–	–	–	–	–
110	1.2	149.26	Cc1ccncc1-c1cc(-c2cnn3c2C(=O)N(c2ccc(C(F)(F)F)c(Cl)c2)C[C@@H]3C)on1 [compound 15]	> 0.63	–	–	–	–

More lines, now with the values behind:

Structure (SMILES)	Emax (human mGlu2 receptor) [%]	IC50 (human mGlu2 receptor) [nM]	melting point [°C]	ED50 (rats; route PO) [mg/kg]	ED50 (rats; route SC) [mg/kg]	ED50 (Wiga Wistar rats; route PO) [mg/kg]	ED50 (Wiga Wistar rats; route SC) [mg/kg]	ED50 (Wiga rats) [mg/kg]
C[C@H]1CN(c2ccc(C(F)(F)F)c(Cl)c2)C(=O)c2c(-c3cc(-c4cccnc4)no3)cnn21 [Co. No. 4, (7S)-5-[3-Chloro-4-(trifluoromethyl)phenyl]-7-methyl-3-[3-(3-pyridyl)isoxazol-5-yl]-6,7-dihydropyrazolo[1,5-a]pyrazin-4-one]	105	2.34	115.67	0.51	–	–	–	–
Cc1ccncc1-c1cc(-c2cnn3c2C(=O)N(c2ccc(C(F)(F)F)cc2)C[C@@H]3C)on1 [compound 10]	108	2.88	211.19	> 0.63	–	–	–	–
C[C@H]1CN(c2ccc(C(F)(F)F)cc2)C(=O)c2c(-c3cc(-c4ccccc4)no3)cnn21 [compound 6]	103	12.3	220.55	–	–	–	–	–
C[C@H]1CN(c2ccc(C(F)(F)F)cc2)C(=O)c2c(-c3cc(-c4cncc(F)c4)no3)cnn21 [compound 9]	108	11	180.17	–	–	–	–	–
C[C@H]1CN(c2ccc(C(F)(F)F)cc2)C(=O)c2c(-c3cc(-c4cccnc4)no3)cnn21 [compound 8]	105	12.9	186.15	–	–	–	–	–
C[C@H]1CN(c2ccc(C(F)(F)F)cc2)C(=O)c2c(-c3cc(N)no3)cnn21 [Co. No. 1, (7S)-3-(3-Aminoisoxazol-5-yl)-7-methyl-5-[4-(trifluoromethyl)phenyl]-6,7-dihydropyrazolo[1,5-a]pyrazin-4-one]	100	490	–	–	–	–	–	–
Cc1cc(-c2cnn3c2C(=O)N(c2ccc(C(F)(F)F)cc2)C[C@@H]3C)on1 [compound 5]	102	16.6	161	> 2.5	–	–	–	–
C[C@H]1CN(c2ccc(C(F)(F)F)cc2)C(=O)c2c(-c3cc(-c4ccccn4)no3)cnn21 [compound 7]	107	11.7	227.97	–	–	–	–	–
C[C@H]1CN(c2ccc(C(F)(F)F)c(Cl)c2)C(=O)c2c(-c3cc(-c4ccc(N)nc4)no3)cnn21 [Co. No. 3, (7S)-3-[3-(6-Amino-3-pyridyl)isoxazol-5-yl]-5-[3-chloro-4-(trifluoromethyl)phenyl]-7-methyl-6,7-dihydropyrazolo[1,5-a]pyrazin-4-one]	105	1.58	–	0.5	–	–	–	–
C[C@H]1CN(c2ccc(C(F)(F)F)cc2)C(=O)c2c(-c3cc(-c4ccc(N)nc4)no3)cnn21 [Co. No. 2, (7S)-3-[3-(6-Amino-3-pyridyl)isoxazol-5-yl]-7-methyl-5-[4-(trifluoromethyl)phenyl]-6,7-dihydropyrazolo[1,5-a]pyrazin-4-one]	112	1.95	263.6	0.28	0.3	0.32	0.2	7.94
